ChEMBL document CHEMBL5543158, “Design of Evodiamine-Glucose Conjugates with Improved In Vivo Antitumor Activity” (J Med Chem, 2024)
Converted amounts (≈) assume the structure as drawn. The source made the active and inactive calls. The calls are words filed in the database; no cut-off is given here.

Legend:
HCT-116 [1] = assay: Induction of apoptosis in human HCT116 cells assessed as accumulation of cells at G1 phase at 0.05 uM measured after 48 hrs by Annexin V-PI Flow cytometry assay (reference value: 51.12%); type: functional
HCT-116 [2] = assay: Antiproliferative activity against human HCT116 cells measured after 72 hrs by CCK-8 cells; type: functional, cell-based; conditions: HCT-116, 72 h
[3] = Toxicity in mouse xenografted with human HCT-116 cells assessed as organ damage by measuring change in liver at 10 mg/kg, ip twice a day administered 21 consecutive days; type: organism-based; conditions: in vivo
[4] = Solubility of the compound in double distilled water measured upto 30 mins by UV-vis spectrophotometry; type: physicochemical
HCT-116 [5] = assay: In vivo antitumor effect in human HCT-116 cells xenografted mouse model assessed as decrease in dense tumor tissue at 10 to 20 mg/kg, ip twice a day administered 21 consecutive days by H and E staining based assay; type: functional, organism-based; conditions: dose 10-20 mg/kg
HCT-116 [6] = assay: Induction of apoptosis in human HCT116 cells assessed as accumulation of cells at S phase at 0.05 uM measured after 48 hrs by Annexin V-PI Flow cytometry assay (reference value: 31.25%); type: functional
A549 = assay: Antiproliferative activity against human A549 cells measured after 72 hrs by CCK-8 cells; type: functional, cell-based; conditions: A549, 72 h
HCT-116 [7] = assay: Antimigratory activity against human HCT116 cells assessed as wound healing rate incubated for 24 hrs by wound healing assay; type: functional, cell-based
[8] = Stability of the compound in mouse serum assessed as compound remaining measured upto 120 mins; type: ADME, cell-free; conditions: read-out: Stability
HCT-116 [9] = assay: Anti-invasive activity against human HCT116 cells assessed as decrease in number of cell migration into lower compartment incubated for 24 hrs by transwell assay; type: functional, cell-based; conditions: dose 0.02-0.05 µM
[10] = Cmax in mouse at 10 mg/kg, ip measured upto 24 hrs; type: ADME, organism-based; conditions: in vivo
HCT-116 [11] = assay: Induction of apoptosis in human HCT116 cells assessed as accumulation of cells at G1 phase at 0.2 uM measured after 48 hrs by Annexin V-PI Flow cytometry assay (reference value: 51.12%); type: functional
HCT-116 [12] = assay: Induction of apoptosis in human HCT116 cells assessed as accumulation of cells at S phase at 0.2 uM measured after 48 hrs by Annexin V-PI Flow cytometry assay (reference value: 31.25%); type: functional
HCT-116 [13] = assay: Induction of apoptosis in human HCT116 cells assessed as accumulation of cells at G2 phase at 0.1 uM measured after 48 hrs by Annexin V-PI Flow cytometry assay (reference value: 17.63%); type: functional
[14] = Cytotoxicity against HUVEC after 72 hrs by CCK-8 assay; type: toxicity, cell-based; conditions: human, HUVEC cells
HCT-116 [15] = assay: In vivo antitumor effect in human HCT-116 cells xenografted mouse model assessed as tumor growth inhibition at 10 mg/kg, ip twice a day administered 21 consecutive days; type: functional; conditions: read-out: TGI
HCT-116 [16] = assay: Induction of apoptosis in human HCT116 cells assessed as accumulation of cells at G2 phase at 0.02 uM measured after 48 hrs by Annexin V-PI Flow cytometry assay (reference value: 17.63%); type: functional
HCT-116 [17] = assay: Induction of apoptosis in 100 pmol GLUT1 siRNA treated human HCT-116 cells assessed as late apoptotic cells at 50 nM incubated for 48 hrs (reference value: 13.36%); type: functional
HCT-116 [18] = assay: Antimigratory activity against human HCT116 cells assessed as inhibition of cell migration at 0.05 microM incubated for 24 hrs by wound healing assay relative to control; type: functional; set-up: scale not given: the % may be the effect or the level left
[19] = Plasma protein binding mouse plasma at 2 uM; type: ADME, cell-free; conditions: read-out: PPB (converted)
[20] = MRT (0 to t) in mouse at 10 mg/kg, ip measured upto 24 hrs; type: ADME, organism-based; conditions: in vivo
HCT-116 [21] = assay: Antiproliferative activity against human HCT116 cells in presence of 5 uM phloretin measured after 72 hrs by CCK-8 assay; type: functional, cell-based; conditions: HCT-116, 72 h
[22] = Half life in mouse at 10 mg/kg, ip measured upto 24 hrs; type: ADME, organism-based; conditions: in vivo
U-87 MG = assay: Antiproliferative activity against human U-87 MG cells measured after 72 hrs by CCK-8 cells; type: functional, cell-based, U-87MG ATCC
[23] = AUC (0 to t)in mouse at 10 mg/kg, ip measured upto 24 hrs; type: ADME, organism-based; conditions: in vivo
[24] = Tmax in mouse at 10 mg/kg, ip measured upto 24 hrs; type: ADME, organism-based; conditions: in vivo
[25] = Toxicity in mouse xenografted with human HCT-116 cells assessed as organ damage by measuring change in heart at 10 mg/kg, ip twice a day administered 21 consecutive days; type: organism-based; conditions: in vivo
HCT-116 [26] = assay: Induction of apoptosis in 100 pmol GLUT1 siRNA treated human HCT-116 cells assessed as late apoptotic cells at 50 nM incubated for 48 hrs (reference value: 17.13%); type: functional
HCT-116 [27] = assay: Induction of apoptosis in human HCT116 cells assessed as accumulation of cells at G1 phase at 0.1 uM measured after 48 hrs by Annexin V-PI Flow cytometry assay (reference value: 51.12%); type: functional
HCT-116 [28] = assay: In vivo antitumor effect in human HCT-116 cells xenografted mouse model assessed as induction of apoptosis in tumor at 10 to 20 mg/kg, ip twice a day administered 21 consecutive days by TUNEL based assay; type: functional, organism-based; conditions: dose 10-20 mg/kg
HCT-116 [29] = assay: Antiproliferative activity against human HCT116 cells in presence of 10 uM phloretin measured after 72 hrs by CCK-8 assay; type: functional, cell-based; conditions: HCT-116, 72 h
HCT-116 [30] = assay: Induction of apoptosis in human HCT116 cells assessed as accumulation of cells at G2 phase at 0.05 uM measured after 48 hrs by Annexin V-PI Flow cytometry assay (reference value: 17.63%); type: functional
[31] = AUC (0 to t)in mouse at 20 mg/kg, ip measured upto 24 hrs; type: ADME, organism-based; conditions: in vivo
[32] = Toxicity in mouse xenografted with human HCT-116 cells assessed as organ damage by measuring change in lungs at 10 mg/kg, ip twice a day administered 21 consecutive days; type: organism-based; conditions: in vivo
HCT-116 [33] = assay: Induction of apoptosis in human HCT116 cells assessed as accumulation of cells at G2 phase at 0.2 uM measured after 48 hrs by Annexin V-PI Flow cytometry assay (reference value: 17.63%); type: functional
HCT-116 [34] = assay: Induction of apoptosis in human HCT116 cells assessed as accumulation of cells at G1 phase at 0.02 uM measured after 48 hrs by Annexin V-PI Flow cytometry assay (reference value: 51.12%); type: functional
[35] = Toxicity in mouse xenografted with human HCT-116 cells assessed as organ damage by measuring change in spleen at 10 mg/kg, ip twice a day administered 21 consecutive days; type: organism-based; conditions: in vivo
Homo sapiens = organism: Homo sapiens; assay: Inhibition of DNA topoisomerase 2 (unknown origin) mediated supercoiled DNA relaxation activity at 50 uM by agarose gel electrophoresis analysis
[36] = MRT (0 to t) in mouse at 20 mg/kg, ip measured upto 24 hrs; type: ADME, organism-based; conditions: in vivo
HCT-116 [37] = assay: Induction of DNA damage in human HCT-116 cells assessed as increase in gamma-H2AX level at above 0.02 to 0.5 uM incubated for 12 hrs by Western blotting analysis; type: functional, cell-based; conditions: dose 0.02-0.5 µM
[38] = Cmax in mouse at 20 mg/kg, ip measured upto 24 hrs; type: ADME, organism-based; conditions: in vivo

CN1c2ccc(F)cc2C(=O)N2CCc3c([nH]c4ccc(O[C@@H]5O[C@H](CO)[C@@H](O)[C@H](O)[C@H]5O)cc34)[C@H]21
Activity (HCT-116 [1]): 10.48% | IC50 (HCT-116 [2]): 64 nM | Activity [3]: Non-Toxic | solubility at 0.5 h [4]: 2150 µg/mL (≈ 4.3 mM) | Activity (HCT-116 [5]): Active | Activity (HCT-116 [6]): 32% | IC50 (A549): 64 nM | Activity (HCT-116 [7]): Dose-Dependent Effect | remaining at 2 h [8]: 100% | Activity (HCT-116 [9]): Dose-Dependent Effect | Cmax [10]: 4630 ng/mL | Activity (HCT-116 [11]): 1.56% | Activity (HCT-116 [12]): 5.6% | Activity (HCT-116 [13]): 88.98% | IC50 at 72 h [14]: 221 nM | inhibition in vivo at 10 mg/kg (HCT-116 [15]): 72% | Activity (HCT-116 [16]): 30.19% | Activity (HCT-116 [17]): 22.61% | Activity (HCT-116 [18]): 100% | fraction unbound at 2 µM [19]: 0.101 | MRT last at 24 h [20]: 48.1 min | IC50 (HCT-116 [21]): 210 nM | half-life [22]: 145 min | IC50 (U-87 MG): 64 nM | AUC(0-t) at 24 h [23]: 4010 ng·h/mL | Tmax [24]: 30 min | Activity [25]: Non-Toxic | Activity (HCT-116 [26]): 21.75% | Activity (HCT-116 [27]): 1.57% | Activity (HCT-116 [28]): Active | IC50 (HCT-116 [29]): 430 nM | Activity (HCT-116 [30]): 57.53% | AUC(0-t) at 24 h [31]: 8430 ng·h/mL | Activity [32]: Non-Toxic | Activity (HCT-116 [33]): 92.85% | Activity (HCT-116 [34]): 43.27% | Activity [35]: Non-Toxic | inhibition (Homo sapiens): Active | MRT last at 24 h [36]: 59.5 min | Activity (HCT-116 [37]): Active | Cmax [38]: 8840 ng/mL
